Data: patent publication US20240277713A1 (Kadmon Corporation, LLC, priority 2022, published 2024)

Legend:
[1] = system: rats; assay: General toxicology studies in rats; assay type: in vivo, rat
[2] = molecular target: T1, BCRP (Homo sapiens, UniProt Q9UNQ0); assay: Transporter systems in vitro: BCRP; assay type: in vitro ADME; details: clinically relevant concentrations
T1 sequence (Q9UNQ0 1-655): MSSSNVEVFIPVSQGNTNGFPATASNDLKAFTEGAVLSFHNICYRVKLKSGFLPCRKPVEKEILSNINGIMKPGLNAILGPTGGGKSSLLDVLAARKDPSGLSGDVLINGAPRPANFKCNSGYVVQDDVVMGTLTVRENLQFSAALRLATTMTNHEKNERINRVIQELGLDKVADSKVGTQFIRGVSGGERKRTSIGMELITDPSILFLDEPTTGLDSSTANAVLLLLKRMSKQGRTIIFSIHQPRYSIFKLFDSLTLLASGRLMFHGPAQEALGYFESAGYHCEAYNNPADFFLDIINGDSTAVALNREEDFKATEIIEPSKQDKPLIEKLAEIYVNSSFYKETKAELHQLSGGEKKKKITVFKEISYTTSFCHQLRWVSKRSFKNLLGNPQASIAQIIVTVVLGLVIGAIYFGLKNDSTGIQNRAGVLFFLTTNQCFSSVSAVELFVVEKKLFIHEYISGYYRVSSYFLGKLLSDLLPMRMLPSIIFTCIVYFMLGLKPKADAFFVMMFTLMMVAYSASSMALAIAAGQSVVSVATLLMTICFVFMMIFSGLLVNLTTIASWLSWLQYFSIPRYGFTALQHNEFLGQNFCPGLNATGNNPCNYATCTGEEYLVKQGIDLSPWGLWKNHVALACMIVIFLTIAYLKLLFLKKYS

[3] = system: bacterial; assay: in vitro bacterial mutagenicity (Ames) assay; assay type: cell-based
[4] = system: dogs; assay: General toxicology studies in dogs; assay type: in vivo, dog
[5] = molecular target: T2, CYP1A2 (Homo sapiens, UniProt P05177); assay: Enzyme systems in vitro: CYP1A2; assay type: in vitro ADME
T2 sequence (P05177 1-516): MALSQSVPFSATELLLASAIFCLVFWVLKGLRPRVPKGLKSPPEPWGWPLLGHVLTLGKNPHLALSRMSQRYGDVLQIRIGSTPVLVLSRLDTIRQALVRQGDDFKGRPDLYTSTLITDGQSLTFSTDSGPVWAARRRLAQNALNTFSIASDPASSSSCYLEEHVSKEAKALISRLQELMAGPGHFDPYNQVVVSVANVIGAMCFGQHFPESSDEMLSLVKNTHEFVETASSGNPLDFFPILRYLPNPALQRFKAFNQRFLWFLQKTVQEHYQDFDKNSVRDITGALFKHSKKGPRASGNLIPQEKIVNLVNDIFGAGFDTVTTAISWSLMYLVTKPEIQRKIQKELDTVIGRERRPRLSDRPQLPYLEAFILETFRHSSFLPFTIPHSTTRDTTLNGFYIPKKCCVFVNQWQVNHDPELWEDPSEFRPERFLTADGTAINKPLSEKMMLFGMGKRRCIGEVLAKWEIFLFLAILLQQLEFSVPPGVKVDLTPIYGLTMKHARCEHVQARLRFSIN

[6] = molecular target: human serum albumin (Homo sapiens, UniProt P02768); assay: Binding to human serum albumin in vitro; assay type: in vitro ADME
Chain of human serum albumin (P02768 25-609): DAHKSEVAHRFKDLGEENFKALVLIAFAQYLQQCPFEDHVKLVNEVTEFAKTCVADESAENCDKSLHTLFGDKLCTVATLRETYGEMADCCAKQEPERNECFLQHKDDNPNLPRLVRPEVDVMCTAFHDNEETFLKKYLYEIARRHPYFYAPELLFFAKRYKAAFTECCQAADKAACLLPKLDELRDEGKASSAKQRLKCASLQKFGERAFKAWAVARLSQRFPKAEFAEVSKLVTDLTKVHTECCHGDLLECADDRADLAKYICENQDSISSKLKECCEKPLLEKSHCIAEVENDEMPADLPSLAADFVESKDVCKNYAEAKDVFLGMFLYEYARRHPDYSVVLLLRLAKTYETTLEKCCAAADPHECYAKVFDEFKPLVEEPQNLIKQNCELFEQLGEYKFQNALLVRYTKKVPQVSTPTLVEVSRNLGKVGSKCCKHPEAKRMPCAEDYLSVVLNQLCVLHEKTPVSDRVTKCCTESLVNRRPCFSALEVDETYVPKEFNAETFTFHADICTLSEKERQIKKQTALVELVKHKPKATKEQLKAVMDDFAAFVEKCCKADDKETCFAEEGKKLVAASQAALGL

Structure (SMILES): CC(C)NC(=O)COc1cccc(-c2nc(Nc3ccc4[nH]ncc4c3)c3ccccc3n2)c1 [belumosudil, 2-{3-[4-(1H-indazol-5-ylamino)-2-quinazolinyl]phenoxy}-N-(propan-2-yl) acetamide]
- dose with decreased follicular development in ovaries [1]: 275 mg/kg/day
- BCRP inhibition [2]: inhibits
- genotoxicity, bacterial mutagenicity (Ames) assay [3]: not genotoxic
- dose with spermatozoa degeneration [4]: 35 mg/kg/day
- CYP1A2 inhibition [5]: inhibitor
- binding to human serum albumin [6]: 99.9%
